Source: patent US11000033B2, “Ketone or oxime compound, and herbicide” (NISSAN CHEMICAL CORPORATION, priority 2014, dated 2021)

Experiments:
Type in all cases: in vivo
corn = assay: Test Example 4: effect on crop by soil treatment (symbol c); settings: for c (corn) effect on crop grade: application herbicide amount 320 g/ha
Method in brief: (§1)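 Crop seed is sown in spots together with several weed species in a box of sterilized diluvial soil. It is covered by about 1.5 cm of soil and kept in a greenhouse held between 25° C. and 30° C.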

Scirpus juncoides = assay: Test Example 1: herbicidal activity, application before weed generation in submerged conditions (symbol B); settings: application herbicide amount 320 g/ha
Method in brief: (§2)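 Mixed weed seeds sown in alluvial soil under 4 cm of water, with rice seedlings at the 2.5-leaf stage added. Same-day treatment: emulsion diluted to a set herbicide amount onto the water. Three weeks at 25–30 °C, then graded on a six-step scale.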

Leptochloa chinensis = assay: Test Example 3: herbicidal effect by foliage application, Wagner pot (symbol D); settings: application herbicide amount 320 g/ha
Method in brief: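 Plants sown in submerged alluvial soil (water depth 0.1–0.5 cm) in a 25–30 °C greenhouse and grown 14 days. An emulsion of the compound diluted in water to a set herbicide amount was sprayed uniformly on foliage. Effect on each plant scored 3 weeks after application.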

Amaranthus retroflexus = assay: Test Example 4: herbicidal effect by soil treatment (symbol N); settings: for N (Amaranthus retroflexus) herbicidal effect grade: application herbicide amount 320 g/ha
Method in brief: (§3)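 Seeds were sown in sterilized diluvial soil, covered with about 1.5 cm of soil, and the soil surface was sprayed with a water-diluted emulsion of the compound at a predetermined rate. Plants grew in a greenhouse at 25° C. to 30° C.; effects were scored visually 3 weeks after application.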

Lolium multiflorum Lam. = assay: Test Example 4: herbicidal effect by soil treatment (symbol K); settings: for K (Lolium multiflorum Lam.) herbicidal effect grade: application herbicide amount 320 g/ha
Method in brief: as §3

[1] = system: Echinochloa crus-galli var. crus-galli; assay: Test Example 5: herbicidal effect by foliage application, plastic box (symbol H); settings: 320 g/ha, 3 weeks after application
Method in brief: (§4)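 Emulsion formulation, diluted with water to the intended rate, was applied uniformly to leaves by small sprayer. Recipients were 14-day greenhouse-grown seedlings (25° C. to 30° C.). Assessment followed at 3 weeks.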

Apera spica-venti = assay: Test Example 4: herbicidal effect by soil treatment (symbol L); settings: for L (Apera spica-venti) herbicidal effect grade: application herbicide amount 320 g/ha
Method in brief: as §3

Monochoria vaginalis = assay: Test Example 1: herbicidal activity, application before weed generation in submerged conditions (symbol C); settings: application herbicide amount 320 g/ha
Method in brief: as §2

Stellaria media [2] = assay: Test Example 5: herbicidal effect by foliage application, plastic box (symbol P); settings: 320 g/ha, 3 weeks after application
Method in brief: as §4

Alopecurus myosuroides = assay: Test Example 5: herbicidal effect by foliage application, plastic box (symbol J); settings: 320 g/ha, 3 weeks after application
Method in brief: as §4

Galium spurium = assay: Test Example 5: herbicidal effect by foliage application, plastic box (symbol Q); settings: 320 g/ha, 3 weeks after application
Method in brief: as §4

Setaria viridis [3] = assay: Test Example 5: herbicidal effect by foliage application, plastic box (symbol G); settings: 320 g/ha, 3 weeks after application
Method in brief: as §4

rapeseed [4] = assay: Test Example 4: effect on crop by soil treatment (symbol g); settings: for g (rapeseed) effect on crop grade: application herbicide amount 320 g/ha
Method in brief: as §1

[5] = system: Echinochloa crus-galli var. crus-galli; assay: Test Example 4: herbicidal effect by soil treatment (symbol H); settings: for H (Echinochloa crus-galli var. crus-galli) herbicidal effect grade: application herbicide amount 320 g/ha
Method in brief: as §3

wheat = assay: Test Example 5: effect on crop by foliage application, plastic box (symbol e); settings: 320 g/ha, 3 weeks after application
Method in brief: (§5)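 Crop and weed seeds sown in spots in sterilized diluvial soil in plastic boxes and covered with about 1.5 cm soil. Plants raised in a greenhouse at 25° C. to 30° C. for foliar application.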

Setaria viridis [6] = assay: Test Example 4: herbicidal effect by soil treatment (symbol G); settings: for G (Setaria viridis) herbicidal effect grade: application herbicide amount 320 g/ha
Method in brief: as §3

rapeseed [7] = assay: Test Example 5: effect on crop by foliage application, plastic box (symbol g); settings: 320 g/ha, 3 weeks after application
Method in brief: as §5

Stellaria media [8] = assay: Test Example 4: herbicidal effect by soil treatment (symbol P); settings: for P (Stellaria media) herbicidal effect grade: application herbicide amount 320 g/ha
Method in brief: as §3

Row | SMILES | c (corn) effect on crop grade (corn) | Herbicidal effect grade, B: Scirpus juncoides (Scirpus juncoides) | herbicidal effect on D (Leptochloa chinensis), grade 0-5 (Leptochloa chinensis) | N (Amaranthus retroflexus) herbicidal effect grade (Amaranthus retroflexus) | K (Lolium multiflorum Lam.) herbicidal effect grade (Lolium multiflorum Lam.) | H: Echinochloa crus-galli var. crus-galli, herbicidal effect grade [1] | L (Apera spica-venti) herbicidal effect grade (Apera spica-venti) | Herbicidal effect grade, C: Monochoria vaginalis (Monochoria vaginalis) | P: Stellaria media, herbicidal effect grade (Stellaria media [2]) | J: Alopecurus myosuroides, herbicidal effect grade (Alopecurus myosuroides) | Q: Galium spurium, herbicidal effect grade (Galium spurium) | G: Setaria viridis, herbicidal effect grade (Setaria viridis [3]) | g (rapeseed) effect on crop grade (rapeseed [4]) | H (Echinochloa crus-galli var. crus-galli) herbicidal effect grade [5] | e: wheat, effect on crop grade (wheat) | G (Setaria viridis) herbicidal effect grade (Setaria viridis [6]) | g: rapeseed, effect on crop grade (rapeseed [7]) | P (Stellaria media) herbicidal effect grade (Stellaria media [8]) | further results
1 | CON=C(CC1CC(O)=C(c2c(C)cc(C)cc2C)C1=O)c1ccccn1 (stereo not drawn) [1-045] | 0 (Herbicidal ratio of 5% or lower (almost no effect)) | 2 (Herbicidal ratio of 20% or higher and lower than 40%) | 4 (Herbicidal ratio of 70% or higher and lower than 90%) | 0 (Herbicidal ratio of 5% or lower (almost no effect)) | 4 (Herbicidal ratio of 70% or higher and lower than 90%) | 5 (Herbicidal ratio of 90% or more (almost completely withered)) | 0 (Herbicidal ratio of 5% or lower (almost no effect)) | 0 (Herbicidal ratio of 5% or lower (almost no effect)) | 0 (Herbicidal ratio of 5% or lower (almost no effect)) | 5 (Herbicidal ratio of 90% or more (almost completely withered)) | 0 (Herbicidal ratio of 5% or lower (almost no effect)) | 5 (Herbicidal ratio of 90% or more (almost completely withered)) | 0 (Herbicidal ratio of 5% or lower (almost no effect)) | 0 (Herbicidal ratio of 5% or lower (almost no effect)) | 0 (Herbicidal ratio of 5% or lower (almost no effect)) | 0 (Herbicidal ratio of 5% or lower (almost no effect)) | 2 (Herbicidal ratio of 20% or higher and lower than 40%) | 0 (Herbicidal ratio of 5% or lower (almost no effect)) | 
2 | CON=CCC1CC(O)=C(c2c(C)cc(C)cc2C)C1=O (stereo not drawn) [1-050] | 0 (Herbicidal ratio of 5% or lower (almost no effect)) | 2 (Herbicidal ratio of 20% or higher and lower than 40%) | 4 (Herbicidal ratio of 70% or higher and lower than 90%) | 0 (Herbicidal ratio of 5% or lower (almost no effect)) | 4 (Herbicidal ratio of 70% or higher and lower than 90%) | 5 (Herbicidal ratio of 90% or more (almost completely withered)) | 0 (Herbicidal ratio of 5% or lower (almost no effect)) | 3 (Herbicidal ratio of 40% or higher and lower than 70%) | 0 (Herbicidal ratio of 5% or lower (almost no effect)) | 4 (Herbicidal ratio of 70% or higher and lower than 90%) | 0 (Herbicidal ratio of 5% or lower (almost no effect)) | 5 (Herbicidal ratio of 90% or more (almost completely withered)) | 0 (Herbicidal ratio of 5% or lower (almost no effect)) | 4 (Herbicidal ratio of 70% or higher and lower than 90%) | 0 (Herbicidal ratio of 5% or lower (almost no effect)) | 4 (Herbicidal ratio of 70% or higher and lower than 90%) | 4 (Herbicidal ratio of 70% or higher and lower than 90%) | 0 (Herbicidal ratio of 5% or lower (almost no effect)) | 
3 | CCCCCCCON=C(C)CC1CC(O)=C(c2c(C)cc(C)cc2C)C1=O (stereo not drawn) [1-054] | 0 (Herbicidal ratio of 5% or lower (almost no effect)) | 0 (Herbicidal ratio of 5% or lower (almost no effect)) | 3 (Herbicidal ratio of 40% or higher and lower than 70%) | 0 (Herbicidal ratio of 5% or lower (almost no effect)) | 5 (Herbicidal ratio of 90% or more (almost completely withered)) | 4 (Herbicidal ratio of 70% or higher and lower than 90%) | 1 (Herbicidal ratio of 5% or higher and lower than 20%) | 0 (Herbicidal ratio of 5% or lower (almost no effect)) | 0 (Herbicidal ratio of 5% or lower (almost no effect)) | 4 (Herbicidal ratio of 70% or higher and lower than 90%) | 0 (Herbicidal ratio of 5% or lower (almost no effect)) | 3 (Herbicidal ratio of 40% or higher and lower than 70%) | 1 (Herbicidal ratio of 5% or higher and lower than 20%) | 4 (Herbicidal ratio of 70% or higher and lower than 90%) | 0 (Herbicidal ratio of 5% or lower (almost no effect)) | 5 (Herbicidal ratio of 90% or more (almost completely withered)) | 3 (Herbicidal ratio of 40% or higher and lower than 70%) | 0 (Herbicidal ratio of 5% or lower (almost no effect)) | 
4 | CON=C(CC1CC(O)=C(c2c(C)cc(C)cc2C)C1=O)C1CCCC1 (stereo not drawn) [1-078] |  | 2 (Herbicidal ratio of 20% or higher and lower than 40%) | 4 (Herbicidal ratio of 70% or higher and lower than 90%) |  |  |  |  | 0 (Herbicidal ratio of 5% or lower (almost no effect)) |  |  |  |  |  |  |  |  |  |  | c: corn, effect grade on crop (corn; 320 g/ha): 4 (Herbicidal ratio of 70% or higher and lower than 90%); N: Amaranthus retroflexus, herbicidal effect grade (Amaranthus retroflexus; 320 g/ha): 0 (Herbicidal ratio of 5% or lower (almost no effect)); K: Lolium multiflorum Lam., herbicidal effect grade (Lolium multiflorum Lam.; 320 g/ha): 5 (Herbicidal ratio of 90% or more (almost completely withered)); H: Echinochloa crus-galli var. crus-galli, herbicidal effect (criteria 0-5) [1]: 5 (Herbicidal ratio of 90% or more (almost completely withered)); L: Apera spica-venti, herbicidal effect grade (Apera spica-venti; 320 g/ha): 4 (Herbicidal ratio of 70% or higher and lower than 90%); P: Stellaria media, herbicidal effect (criteria 0-5) (Stellaria media [2]): 0 (Herbicidal ratio of 5% or lower (almost no effect)); J: Alopecurus myosuroides, herbicidal effect (criteria 0-5) (Alopecurus myosuroides): 4 (Herbicidal ratio of 70% or higher and lower than 90%); Q: Galium spurium, herbicidal effect (criteria 0-5) (Galium spurium): 0 (Herbicidal ratio of 5% or lower (almost no effect)); G: Setaria viridis, herbicidal effect (criteria 0-5) (Setaria viridis [3]): 5 (Herbicidal ratio of 90% or more (almost completely withered)); g: rapeseed, effect grade on crop (rapeseed [4]; 320 g/ha): 1 (Herbicidal ratio of 5% or higher and lower than 20%); H: Echinochloa crus-galli var. crus-galli, herbicidal effect grade ([5]; 320 g/ha): 2 (Herbicidal ratio of 20% or higher and lower than 40%); e: wheat, effect on crop (criteria 0-5) (wheat): 0 (Herbicidal ratio of 5% or lower (almost no effect)); G: Setaria viridis, herbicidal effect grade (Setaria viridis [6]; 320 g/ha): 5 (Herbicidal ratio of 90% or more (almost completely withered)); g: rapeseed, effect on crop (criteria 0-5) (rapeseed [7]): 3 (Herbicidal ratio of 40% or higher and lower than 70%); P: Stellaria media, herbicidal effect grade (Stellaria media [8]; 320 g/ha): 0 (Herbicidal ratio of 5% or lower (almost no effect))
